Laboratory results from ChEMBL document CHEMBL1141566, “Synthesis and antitumor evaluation of bis aza-anthracene-9,10-diones and bis aza-anthrapyrazole-6-ones” (2008).

What was measured:
Assay type in all cases: functional
HT-29 [1] = assay: Effect on apoptotic NOL3 gene expression in human HT29 cells after 6 hrs
HT-29 [2] = assay: Effect on proapoptotic CASP9 gene expression in human HT29 cells after 6 hrs
HT-29 [3] = assay: Effect on proapoptotic CARD6 gene expression in human HT29 cells after 12 hrs
HT-29 [4] = assay: Effect on apoptotic BAG4 gene expression in human HT29 cells after 6 hrs
HT-29 [5] = assay: Effect on apoptosis in human HT29 PI-/AnnV+ cells after 6 hrs by biparametric flow cytometric analysis; settings: HT-29, 6 h, read-out: LC50 (the source's name)
HT-29 [6] = assay: Effect on proapoptotic CIDEB gene expression in human HT29 cells after 6 hrs
HT-29 [7] = assay: Effect on proapoptotic BAX gene expression in human HT29 cells after 6 hrs
HT-29 [8] = assay: Cytotoxicity against human HT29 cells after 72 hrs; settings: HT-29, 72 h
HT-29 [9] = assay: Effect on proapoptotic BCL2 gene expression in human HT29 cells after 6 hrs
HT-29 [10] = assay: Effect on proapoptotic BFAR gene expression in human HT29 cells after 6 hrs
HT-29 [11] = assay: Effect on apoptosis in human HT29 PI+/AnnV- cells after 12 hrs by biparametric flow cytometric analysis; settings: HT-29, 12 h, read-out: LC50 (the source's name)
HT-29 [12] = assay: Effect on apoptotic BIRC6 gene expression in human HT29 cells after 6 hrs
HT-29 [13] = assay: Effect on proapoptotic BNIP1 gene expression in human HT29 cells after 6 hrs
HT-29 [14] = assay: Effect on proapoptotic TNFRSF10A gene expression in human HT29 cells after 12 hrs
HT-29 [15] = assay: Effect on proapoptotic BCL2L11 gene expression in human HT29 cells after 6 hrs
HT-29 [16] = assay: Effect on apoptotic IGF1R gene expression in human HT29 cells after 12 hrs
HT-29 [17] = assay: Effect on apoptosis in human HT29 PI-/AnnV+ cells after 24 hrs by biparametric flow cytometric analysis; settings: HT-29, 24 h, read-out: LC50 (the source's name)
HT-29 [18] = assay: Effect on apoptotic BIRC3 gene expression in human HT29 cells after 12 hrs
HT-29 [19] = assay: Effect on proapoptotic CARD8 gene expression in human HT29 cells after 6 hrs
HT-29 [20] = assay: Effect on apoptosis in human HT29 PI+/AnnV- cells after 24 hrs by biparametric flow cytometric analysis; settings: HT-29, 24 h, read-out: LC50 (the source's name)
HT-29 [21] = assay: Effect on proapoptotic LTBR gene expression in human HT29 cells after 12 hrs
HT-29 [22] = assay: Effect on apoptosis in human HT29 PI-/AnnV- cells after 24 hrs by biparametric flow cytometric analysis; settings: HT-29, 24 h, read-out: LC50 (the source's name)
HT-29 [23] = assay: Effect on proapoptotic BAK1 gene expression in human HT29 cells after 12 hrs
HT-29 [24] = assay: Effect on proapoptotic BFAR gene expression in human HT29 cells after 12 hrs
HT-29 [25] = assay: Effect on apoptotic NOL3 gene expression in human HT29 cells after 12 hrs
HT-29 [26] = assay: Effect on apoptotic CFLAR gene expression in human HT29 cells after 12 hrs
HT-29 [27] = assay: Effect on apoptotic MCL1 gene expression in human HT29 cells after 6 hrs
HT-29 [28] = assay: Effect on proapoptotic BNIP3L gene expression in human HT29 cells after 12 hrs
HT-29 [29] = assay: Effect on proapoptotic LTBR gene expression in human HT29 cells after 6 hrs
HT-29 [30] = assay: Effect on apoptosis in human HT29 PI-/AnnV+ cells after 12 hrs by biparametric flow cytometric analysis; settings: HT-29, 12 h, read-out: LC50 (the source's name)
HT-29 [31] = assay: Effect on apoptotic MCL1 gene expression in human HT29 cells after 12 hrs
HT-29 [32] = assay: Effect on proapoptotic BNIP3L gene expression in human HT29 cells after 6 hrs
HT-29 [33] = assay: Effect on proapoptotic CARD6 gene expression in human HT29 cells after 6 hrs
HT-29 [34] = assay: Effect on apoptotic CFLAR gene expression in human HT29 cells after 6 hrs
HT-29 [35] = assay: Effect on apoptosis in human HT29 PI+/AnnV+ cells after 12 hrs by biparametric flow cytometric analysis; settings: HT-29, 12 h, read-out: LC50 (the source's name)
HT-29 [36] = assay: Effect on proapoptotic BCLAF1 gene expression in human HT29 cells after 12 hrs
HT-29 [37] = assay: Effect on apoptosis in human HT29 PI+/AnnV- cells after 6 hrs by biparametric flow cytometric analysis; settings: HT-29, 6 h, read-out: LC50 (the source's name)
HT-29 [38] = assay: Effect on apoptosis in human HT29 PI-/AnnV- cells after 6 hrs by biparametric flow cytometric analysis; settings: HT-29, 6 h, read-out: LC50 (the source's name)
HT-29 [39] = assay: Effect on proapoptotic TNFRSF10A gene expression in human HT29 cells after 6 hrs
HT-29 [40] = assay: Effect on apoptotic BAG1 gene expression in human HT29 cells after 6 hrs
HT-29 [41] = assay: Effect on apoptotic AKT1 gene expression in human HT29 cells after 12 hrs
HT-29 [42] = assay: Effect on proapoptotic NOD1 gene expression in human HT29 cells after 6 hrs
HT-29 [43] = assay: Effect on proapoptotic CASP7 gene expression in human HT29 cells after 6 hrs
HT-29 [44] = assay: Effect on proapoptotic TNFRSF10B gene expression in human HT29 cells after 12 hrs
HT-29 [45] = assay: Effect on apoptotic BAG4 gene expression in human HT29 cells after 12 hrs
HT-29 [46] = assay: Effect on apoptotic BIRC8 gene expression in human HT29 cells after 6 hrs
HT-29 [47] = assay: Effect on apoptotic BIRC8 gene expression in human HT29 cells after 12 hrs
HT-29 [48] = assay: Effect on apoptosis in human HT29 PI+/AnnV+ cells after 24 hrs by biparametric flow cytometric analysis; settings: HT-29, 24 h, read-out: LC50 (the source's name)
HT-29 [49] = assay: Effect on proapoptotic CIDEB gene expression in human HT29 cells after 12 hrs
HT-29 [50] = assay: Effect on apoptosis in human HT29 PI-/AnnV- cells after 12 hrs by biparametric flow cytometric analysis; settings: HT-29, 12 h, read-out: LC50 (the source's name)
HT-29 [51] = assay: Effect on apoptotic BCL2L1 gene expression in human HT29 cells after 6 hrs
HT-29 [52] = assay: Effect on proapoptotic BAK1 gene expression in human HT29 cells after 6 hrs
HT-29 [53] = assay: Effect on apoptotic BCL2L10 gene expression in human HT29 cells after 6 hrs
HT-29 [54] = assay: Effect on proapoptotic BAX gene expression in human HT29 cells after 12 hrs
HT-29 [55] = assay: Effect on apoptotic IGF1R gene expression in human HT29 cells after 6 hrs
HT-29 [56] = assay: Effect on apoptotic BCL10 gene expression in human HT29 cells after 12 hrs
HT-29 [57] = assay: Effect on apoptotic GADD45A gene expression in human HT29 cells after 6 hrs
HT-29 [58] = assay: Effect on apoptosis in human HT29 PI+/AnnV+ cells after 6 hrs by biparametric flow cytometric analysis; settings: HT-29, 6 h, read-out: LC50 (the source's name)
HT-29 [59] = assay: Effect on apoptotic BRAF gene expression in human HT29 cells after 12 hrs

## CN(C)CCn1nc2c3c(c(NCCCN(C)CCCNc4ccc5c6c(nn5CCN(C)C)-c5cnccc5C(=O)c46)ccc31)C(=O)c1ccncc1-2
HT-29 [1]
  Fold change: -2.5
HT-29 [2]
  Fold change: 2.2
HT-29 [3]
  Fold change: -6.7
HT-29 [4]
  Fold change: -7
HT-29 [5]
  CC50: 22.3 µM
HT-29 [6]
  Fold change: 8.3
HT-29 [7]
  Fold change: 4.1
HT-29 [8]
  GI50: 0.00036 µM
  LC50 (concentration killing 50% of cells): 9.8 µM
  TGI: 1.3 µM
HT-29 [9]
  Fold change: -2.8
HT-29 [10]
  Fold change: -7
HT-29 [11]
  CC50: 4.2 µM
HT-29 [12]
  Fold change: -2.6
HT-29 [13]
  Fold change: 3
HT-29 [14]
  Fold change: -5.9
HT-29 [15]
  Fold change: 7.7
HT-29 [16]
  Fold change: -4
HT-29 [17]
  CC50: 62.3 µM
HT-29 [18]
  Fold change: -6.3
HT-29 [19]
  Fold change: 4
HT-29 [20]
  CC50: 7.2 µM
HT-29 [21]
  Fold change: -4.3
HT-29 [22]
  CC50: 8.3 µM
HT-29 [23]
  Fold change: 4.1
HT-29 [24]
  Fold change: -2.5
HT-29 [25]
  Fold change: -3.8
HT-29 [26]
  Fold change: -3.3
HT-29 [27]
  Fold change: -5
HT-29 [28]
  Fold change: 3.6
HT-29 [29]
  Fold change: -5.3
HT-29 [30]
  CC50: 32.4 µM
HT-29 [31]
  Fold change: -2.7
HT-29 [32]
  Fold change: 7.4
HT-29 [33]
  Fold change: -2.7
HT-29 [34]
  Fold change: -2.2
HT-29 [35]
  CC50: 3.4 µM
HT-29 [36]
  Fold change: 136
HT-29 [37]
  CC50: 3.4 µM
HT-29 [38]
  CC50: 72.5 µM
HT-29 [39]
  Fold change: -2.5
HT-29 [40]
  Fold change: -2.5
HT-29 [41]
  Fold change: -6.3
HT-29 [42]
  Fold change: 4.2
HT-29 [43]
  Fold change: 5.6
HT-29 [44]
  Fold change: -4.3
HT-29 [45]
  Fold change: -3.3
HT-29 [46]
  Fold change: -5.6
HT-29 [47]
  Fold change: -33.3
HT-29 [48]
  CC50: 22.2 µM
HT-29 [49]
  Fold change: 2.4
HT-29 [50]
  CC50: 60 µM
HT-29 [51]
  Fold change: 1.2
HT-29 [52]
  Fold change: 4.5
HT-29 [53]
  Fold change: 2.2
HT-29 [54]
  Fold change: 1.3
HT-29 [55]
  Fold change: -38.5
HT-29 [56]
  Fold change: -2.2
HT-29 [57]
  Fold change: 8.8
HT-29 [58]
  CC50: 1.8 µM
HT-29 [59]
  Fold change: -9.1
